Publication PMC2783186 (Journal of medicinal chemistry, 2009)

Assays:
[1] = molecular target: PLAP (Homo sapiens, UniProt P05187); experiment: PLAP luminescent assay; format: biochemical
[2] = molecular target: T1, PHOSPHO1 (Homo sapiens, UniProt Q8TCT1); experiment: PHOSPHO1 counterscreen; format: biochemical; conditions: read-out: Inhibition of PHOSPHO1
T1 sequence (Q8TCT1 1-267): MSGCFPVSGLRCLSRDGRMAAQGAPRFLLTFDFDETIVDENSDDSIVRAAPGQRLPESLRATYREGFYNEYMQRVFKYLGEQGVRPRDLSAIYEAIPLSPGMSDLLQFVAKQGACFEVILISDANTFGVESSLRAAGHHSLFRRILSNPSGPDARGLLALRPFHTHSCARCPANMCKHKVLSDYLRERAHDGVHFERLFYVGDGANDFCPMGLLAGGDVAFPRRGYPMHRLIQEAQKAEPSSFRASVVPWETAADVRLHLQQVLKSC

[3] = PAMPA permeability; format: in vitro ADME
[4] = test system: Cytochrome P450 2C19 (CYP2C19); conditions: ref PubChem database; cited from earlier work
[5] = molecular target: T2, TNAP (Homo sapiens, UniProt P05186); experiment: TNAP luminescent assay; format: biochemical; conditions: relative to lead compound 1
T2 sequence (P05186 18-501 limits assumed): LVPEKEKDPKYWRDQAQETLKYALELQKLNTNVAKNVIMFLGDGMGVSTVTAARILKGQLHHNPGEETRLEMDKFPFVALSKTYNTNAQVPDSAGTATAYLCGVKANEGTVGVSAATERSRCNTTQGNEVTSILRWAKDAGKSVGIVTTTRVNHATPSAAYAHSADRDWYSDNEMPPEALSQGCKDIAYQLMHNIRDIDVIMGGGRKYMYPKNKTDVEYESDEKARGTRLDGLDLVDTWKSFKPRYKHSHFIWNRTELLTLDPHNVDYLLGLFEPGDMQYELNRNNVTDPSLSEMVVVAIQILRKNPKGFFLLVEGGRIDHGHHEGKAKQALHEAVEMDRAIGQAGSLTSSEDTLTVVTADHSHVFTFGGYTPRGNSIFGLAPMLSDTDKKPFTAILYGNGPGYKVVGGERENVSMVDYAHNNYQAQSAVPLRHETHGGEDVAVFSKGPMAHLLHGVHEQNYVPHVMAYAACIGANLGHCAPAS

[6] = molecular target: T2, TNAP; conditions: cited from earlier work

Chain of PLAP (P05187 23-506 limits assumed): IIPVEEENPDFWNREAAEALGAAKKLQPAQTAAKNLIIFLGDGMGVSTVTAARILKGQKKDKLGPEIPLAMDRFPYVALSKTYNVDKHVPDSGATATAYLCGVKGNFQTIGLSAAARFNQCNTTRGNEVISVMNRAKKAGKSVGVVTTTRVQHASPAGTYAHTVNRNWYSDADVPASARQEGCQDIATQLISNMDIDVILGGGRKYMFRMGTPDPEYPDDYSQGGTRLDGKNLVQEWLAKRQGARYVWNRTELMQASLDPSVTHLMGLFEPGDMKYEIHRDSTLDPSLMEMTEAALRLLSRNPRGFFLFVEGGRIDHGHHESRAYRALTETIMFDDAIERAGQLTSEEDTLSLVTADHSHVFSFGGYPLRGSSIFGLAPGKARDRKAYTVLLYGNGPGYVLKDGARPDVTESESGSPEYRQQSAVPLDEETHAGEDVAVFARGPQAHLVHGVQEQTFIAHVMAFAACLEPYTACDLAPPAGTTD

Compound	PAMPA (% FLUX) [3] [% FLUX]	TNAP inhibitory activity (in words) [5]	also measured
COc1ccc(OC)c(S(=O)(=O)Nc2cnc3ccccc3c2)c1 [Compound 1, 2,5-Dimethoxy-N-(quinolin-3-yl)benzenesulfonamide]	58	–	IC50 [1]: > 100 µM; inhibition at 10 µM [2]: < 7.4%; Activity in Cytochrome P450 2C19 assay [4]: showed activity
COc1ccc(OC)c(S(=O)(=O)Nc2ccc3ccccc3c2)c1 [Compound 12, 2,5-Dimethoxy-N-(naphthalen-2-yl)benzenesulfonamide]	–	loss of activity	–
COc1ccc(OC)c(S(=O)(=O)Nc2ccc3ncccc3c2)c1 [Compound 13, 2,5-Dimethoxy-N-(quinolin-6-yl)benzenesulfonamide]	–	loss of activity	–
COc1cccc(S(=O)(=O)Nc2cnc3ccccc3c2)c1 [Compound 15, 3-Methoxy-N-(quinolin-3-yl)benzenesulfonamide]	–	dramatic loss of activity	–
COc1ccc(OC)c(NS(=O)(=O)c2cnc3ccccc3c2)c1 [Compound 16, N-(2,5-Dimethoxyphenyl)quinoline-3-sulfonamide]	–	abolished the inhibitory activity	–
COc1ccc(OC)c(CNc2cnc3ccccc3c2)c1 [Compound 17]	–	abolished the inhibitory activity	–
COc1ccc(Br)cc1S(=O)(=O)Nc1cnc2ccccc2c1 [Compound 18, 5-Bromo-2-methoxy-N-(quinolin-3-yl)benzenesulfonamide]	54	–	–
COc1ccc(C)cc1S(=O)(=O)Nc1cnc2ccccc2c1 [Compound 19, 2-Methoxy-5-methyl-N-(quinolin-3-yl)benzenesulfonamide]	7	–	–
NC(N)=NCCCC[C@H](N)C(=O)O [L-homoarginine]	–	–	Mode of inhibition versus phosphate-donor substrate [6]: uncompetitive
c1ccc([C@H]2CN3CCSC3=N2)cc1 [levamisole]	–	–	Mode of inhibition versus phosphate-donor substrate [6]: uncompetitive
